Literature values in PMC9963398, “Discovery of New Quinolone-Based Diarylamides as Potent B-RAF^V600E/C-RAF Kinase Inhibitors Endowed with Promising In Vitro Anticancer Activity” (International Journal of Molecular Sciences, 2023).

Experiments:
[1] = system: CCRF-CEM; set-up: method as in PMID 32745753; conditions: Leukemia; cited from earlier work
[2] = system: HL-60(TB); set-up: method as in PMID 32745753; conditions: Leukemia; cited from earlier work
[3] = system: K-562; set-up: method as in PMID 32745753; conditions: K-562, Leukemia; cited from earlier work
[4] = system: SR; set-up: method as in PMID 32745753; conditions: Leukemia; cited from earlier work
[5] = system: A549/ATCC; set-up: method as in PMID 32745753; conditions: NSCL cancer; cited from earlier work
[6] = system: EKVX; set-up: method as in PMID 32745753; conditions: NSCL cancer; cited from earlier work
[7] = system: HOP-62; set-up: method as in PMID 32745753; conditions: HOP-62, NSCL cancer; cited from earlier work
[8] = system: NCI-H322M; set-up: method as in PMID 32745753; conditions: NSCL cancer; cited from earlier work
[9] = system: COLO 205; set-up: method as in PMID 32745753; conditions: COLO 205, Colon cancer; cited from earlier work
[10] = system: HCT-116; set-up: method as in PMID 32745753; conditions: HCT-116, Colon cancer; cited from earlier work
[11] = system: HCT-15; set-up: method as in PMID 32745753; conditions: HCT-15, Colon cancer; cited from earlier work
[12] = system: HT29; set-up: method as in PMID 32745753; conditions: HT29, Colon cancer; cited from earlier work
[13] = system: SW-620; set-up: method as in PMID 32745753; conditions: SW-620, Colon cancer; cited from earlier work
[14] = system: SF-295; set-up: method as in PMID 32745753; conditions: SF-295, CNS cancer; cited from earlier work
[15] = system: SNB-19; set-up: method as in PMID 32745753; conditions: SNB-19, CNS cancer; cited from earlier work
[16] = system: U251; set-up: method as in PMID 32745753; conditions: U251, CNS cancer; cited from earlier work
[17] = system: MDA-MB-435; set-up: method as in PMID 32745753; conditions: MDA-MB-435, Melanoma; cited from earlier work
[18] = system: SK-MEL-28; set-up: method as in PMID 32745753; conditions: SK-MEL-28, Melanoma; cited from earlier work
[19] = system: SK-MEL-5; set-up: method as in PMID 32745753; conditions: SK-MEL-5, Melanoma; cited from earlier work
[20] = system: UACC-257; set-up: method as in PMID 32745753; conditions: UACC-257, Melanoma; cited from earlier work
[21] = system: UACC-62; set-up: method as in PMID 32745753; conditions: UACC-62, Melanoma; cited from earlier work
[22] = system: IGROV1; set-up: method as in PMID 32745753; conditions: IGROV1, Ovarian cancer; cited from earlier work
[23] = system: OVCAR-3; set-up: method as in PMID 32745753; conditions: OVCAR-3, Ovarian cancer; cited from earlier work
[24] = system: OVCAR-4; set-up: method as in PMID 32745753; conditions: OVCAR-4, Ovarian cancer; cited from earlier work
[25] = system: OVCAR-5; set-up: method as in PMID 32745753; conditions: OVCAR-5, Ovarian cancer; cited from earlier work
[26] = system: OVCAR-8; set-up: method as in PMID 32745753; conditions: OVCAR-8, Ovarian cancer; cited from earlier work
[27] = system: NCI/ADR-RES; set-up: method as in PMID 32745753; conditions: Ovarian cancer; cited from earlier work
[28] = system: SK-OV-3; set-up: method as in PMID 32745753; conditions: SK-OV-3, Ovarian cancer; cited from earlier work
[29] = system: 786-0; set-up: method as in PMID 32745753; conditions: 786-0, Renal cancer; cited from earlier work
[30] = system: ACHN; set-up: method as in PMID 32745753; conditions: Renal cancer; cited from earlier work
[31] = system: SN12C; set-up: method as in PMID 32745753; conditions: Renal cancer; cited from earlier work
[32] = system: TK-10; set-up: method as in PMID 32745753; conditions: TK-10, Renal cancer; cited from earlier work
[33] = system: UO-31; set-up: method as in PMID 32745753; conditions: UO-31, Renal cancer; cited from earlier work
[34] = system: HS 578T; set-up: method as in PMID 32745753; conditions: Breast cancer; cited from earlier work
[35] = system: BT-549; set-up: method as in PMID 32745753; conditions: BT-549, Breast cancer; cited from earlier work
[36] = system: T-47D; set-up: method as in PMID 32745753; conditions: Breast cancer; cited from earlier work
[37] = system: PC-3; conditions: PC-3, Prostate cancer; cited from earlier work

For `CNC(=O)c1cc(Oc2ccc(NC(=O)Nc3ccc(Cl)c(C(F)(F)F)c3)cc2)ccn1` [Sorafenib], the GI50 [1] is given as 2200 nM, the GI50 [2] is given as 1600 nM and the GI50 [3] is given as 2800 nM. The GI50 [4] was 3100 nM, the GI50 [5] was 2900 nM and the GI50 [6] was 2500 nM. For the same compound, the GI50 [7] was 1900 nM, the GI50 [8] was 2800 nM and the GI50 [9] was 2200 nM. The GI50 [10] was 1700 nM, the GI50 [11] was 2500 nM and the GI50 [12] was 2200 nM. For the same compound, the GI50 [13] was 2800 nM, the GI50 [14] was 1600 nM and the GI50 [15] was 3400 nM. For the same compound, the GI50 [16] was 2100 nM, the GI50 [17] was 1800 nM and the GI50 [18] was 2600 nM. The GI50 [19] was 1500 nM, the GI50 [20] was 2200 nM and the GI50 [21] was 1700 nM. For the same compound, the GI50 [22] was 2600 nM, the GI50 [23] was 2900 nM and the GI50 [24] was 3500 nM. For the same compound, the GI50 [25] was 2900 nM, the GI50 [26] was 3000 nM and the GI50 [27] was 2500 nM. For the same compound, the GI50 [28] was 2300 nM, the GI50 [29] was 3400 nM and the GI50 [30] was 2800 nM. The GI50 [31] was 2400 nM, the GI50 [32] was 4400 nM and the GI50 [33] was 2600 nM. The GI50 [34] was 2600 nM, the GI50 [35] was 3300 nM and the GI50 [36] was 1800 nM. The GI50 [37] was 2000 nM.
